Patent publication US20240116973A1, “MODIFIED OLIGONUCLEOTIDES” (ALNYLAM PHARMACEUTICALS, INC., priority 2021, published 2024)

Columns and labels:
adenosine deaminase = experiment: Adenosine deaminase assay in human liver S9 fractions; assay type: in vitro ADME; settings: 1 μM nucleoside, 1 mg/mL human liver S9, pH 7.4, with/without 1 mM NADPH, up to 2 hours, LC-MS
Source text: In the adenosine deaminase assays, 2′-fluoroadenosie was used as a positive control for the deaminase activity: […]

[1] = molecular target: T1, human mitochondrial RNA polymerase POLRMT (Homo sapiens, UniProt O00411); experiment: POLRMT primer extension (polymerase incorporation) assay; assay type: biochemical; settings: single NTP 100 μM or 1 mM, 37° C., 30 min, IEX-HPLC fluorescence
T1 construct: purchased Indigo Biosciences MV100-40
T1 sequence (O00411 42-1230): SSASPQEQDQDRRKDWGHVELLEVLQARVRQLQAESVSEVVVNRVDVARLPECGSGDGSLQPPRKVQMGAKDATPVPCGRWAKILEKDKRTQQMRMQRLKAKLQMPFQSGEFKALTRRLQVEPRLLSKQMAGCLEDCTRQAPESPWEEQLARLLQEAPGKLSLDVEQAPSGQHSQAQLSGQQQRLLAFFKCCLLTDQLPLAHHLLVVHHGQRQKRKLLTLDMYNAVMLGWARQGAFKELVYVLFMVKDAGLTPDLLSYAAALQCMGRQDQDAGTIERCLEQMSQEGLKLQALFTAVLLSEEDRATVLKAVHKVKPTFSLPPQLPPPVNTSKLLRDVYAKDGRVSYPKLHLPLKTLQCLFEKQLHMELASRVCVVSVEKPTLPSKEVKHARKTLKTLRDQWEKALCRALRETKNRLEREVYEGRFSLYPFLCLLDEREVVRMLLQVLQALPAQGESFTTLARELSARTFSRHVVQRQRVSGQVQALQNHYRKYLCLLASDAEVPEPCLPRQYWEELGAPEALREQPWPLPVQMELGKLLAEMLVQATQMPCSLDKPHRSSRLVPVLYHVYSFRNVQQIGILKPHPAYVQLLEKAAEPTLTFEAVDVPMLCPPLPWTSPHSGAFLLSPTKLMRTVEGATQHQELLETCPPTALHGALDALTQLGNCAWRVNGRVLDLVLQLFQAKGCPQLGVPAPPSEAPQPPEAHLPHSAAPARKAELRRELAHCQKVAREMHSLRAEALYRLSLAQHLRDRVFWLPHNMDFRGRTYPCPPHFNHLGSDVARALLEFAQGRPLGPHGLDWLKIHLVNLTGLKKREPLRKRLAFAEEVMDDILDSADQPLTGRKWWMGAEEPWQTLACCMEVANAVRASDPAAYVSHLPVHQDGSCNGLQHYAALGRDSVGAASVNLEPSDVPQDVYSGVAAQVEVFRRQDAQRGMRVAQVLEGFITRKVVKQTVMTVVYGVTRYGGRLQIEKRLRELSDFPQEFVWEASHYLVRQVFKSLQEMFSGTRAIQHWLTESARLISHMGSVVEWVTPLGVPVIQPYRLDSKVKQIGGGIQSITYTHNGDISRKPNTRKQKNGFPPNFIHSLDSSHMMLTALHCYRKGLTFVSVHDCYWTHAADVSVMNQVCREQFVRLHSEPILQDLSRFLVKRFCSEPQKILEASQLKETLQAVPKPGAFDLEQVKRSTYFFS
Source text: Purified exonuclease activity-deficient human mitochondrial DNA polymerase POLG was obtained from the lab of Prof. William Copeland (National Institute of Environmental Health Science, Durham, NC, USA). Human mitochondrial POLRMT was purchased from Indigo Biosciences (Cat #MV100-40). Atto-425-labelled DNA and RNA primers were synthesized in house; DNA templates were obtained from IDT.
The assays are designed for single NT addition on appropriate template/primer sets: • Atto-425 labeled primers allow for high sensitivity fluorescence detection with very low reaction volumes • Analytical IEX-HPLC with fluorescence detection for optimal resolution of primer-extended products—especially important in competition mixtures • Assays can be applied for the assessment of incorporation efficiency of novel chemistries.
Reaction conditions for the POLG incorporation assays were as follows: 100 nM DNA template, 100 nM 5′-Atto-425-labelled DNA primer, 40 units POLG, 100 μM or 1 mM NTP substrate in 20 mM Tris-HCl, pH 8.0, 2 mM β-mercaptoethanol, 0.1 mg/mL bovine serum albumin, 10 mM MgCl2. Reactions were incubated at 37° C. for 30 min. Reactions were quenched by heating the reaction mixture to 85° C. for 5 min. The reaction mixtures were diluted with water to a final primer concentration of approximately 2.5 nM and analysed by IEX-HPLC with an attached fluorescence detector (excitation wavelength: 436 nm, emission wavelength: 485 nm) and a Dionex BioLCDNAPac PA200 4×250 mm (8 μm particle size) column. […] The reaction mixtures were diluted with water to a final primer concentration of approximately 2.5 nM and analysed by IEX-HPLC as described above, except that the gradient was 35% to 40% buffer B in 16 min.
Recognition of 2′F—N6MeA NTPs by POLRMT and PolGamma: Incorporation of 2′F—N6MeA, RNA, and 2′-F-RNA NTP monomers were evaluated in a previously reported in vitro primer extension assays catalyzed by the human mitochondrial RNA polymerase POLRMT and human mitochondrial DNA polymerase PolGamma. […]

[2] = molecular target: T2, human mitochondrial DNA polymerase POLG (Homo sapiens, UniProt P54098, D198A/E200A); experiment: POLG (Pol-γ) primer extension (polymerase incorporation) assay; assay type: biochemical; settings: single NTP 100 μM or 1 mM, 37° C., 30 min, IEX-HPLC fluorescence
T2 construct: lab of Prof; William Copeland (National Institute of Environmental Health Science, Durham, NC, USA)
T2 sequence (P54098 26-1239 D198A/E200A limits assumed): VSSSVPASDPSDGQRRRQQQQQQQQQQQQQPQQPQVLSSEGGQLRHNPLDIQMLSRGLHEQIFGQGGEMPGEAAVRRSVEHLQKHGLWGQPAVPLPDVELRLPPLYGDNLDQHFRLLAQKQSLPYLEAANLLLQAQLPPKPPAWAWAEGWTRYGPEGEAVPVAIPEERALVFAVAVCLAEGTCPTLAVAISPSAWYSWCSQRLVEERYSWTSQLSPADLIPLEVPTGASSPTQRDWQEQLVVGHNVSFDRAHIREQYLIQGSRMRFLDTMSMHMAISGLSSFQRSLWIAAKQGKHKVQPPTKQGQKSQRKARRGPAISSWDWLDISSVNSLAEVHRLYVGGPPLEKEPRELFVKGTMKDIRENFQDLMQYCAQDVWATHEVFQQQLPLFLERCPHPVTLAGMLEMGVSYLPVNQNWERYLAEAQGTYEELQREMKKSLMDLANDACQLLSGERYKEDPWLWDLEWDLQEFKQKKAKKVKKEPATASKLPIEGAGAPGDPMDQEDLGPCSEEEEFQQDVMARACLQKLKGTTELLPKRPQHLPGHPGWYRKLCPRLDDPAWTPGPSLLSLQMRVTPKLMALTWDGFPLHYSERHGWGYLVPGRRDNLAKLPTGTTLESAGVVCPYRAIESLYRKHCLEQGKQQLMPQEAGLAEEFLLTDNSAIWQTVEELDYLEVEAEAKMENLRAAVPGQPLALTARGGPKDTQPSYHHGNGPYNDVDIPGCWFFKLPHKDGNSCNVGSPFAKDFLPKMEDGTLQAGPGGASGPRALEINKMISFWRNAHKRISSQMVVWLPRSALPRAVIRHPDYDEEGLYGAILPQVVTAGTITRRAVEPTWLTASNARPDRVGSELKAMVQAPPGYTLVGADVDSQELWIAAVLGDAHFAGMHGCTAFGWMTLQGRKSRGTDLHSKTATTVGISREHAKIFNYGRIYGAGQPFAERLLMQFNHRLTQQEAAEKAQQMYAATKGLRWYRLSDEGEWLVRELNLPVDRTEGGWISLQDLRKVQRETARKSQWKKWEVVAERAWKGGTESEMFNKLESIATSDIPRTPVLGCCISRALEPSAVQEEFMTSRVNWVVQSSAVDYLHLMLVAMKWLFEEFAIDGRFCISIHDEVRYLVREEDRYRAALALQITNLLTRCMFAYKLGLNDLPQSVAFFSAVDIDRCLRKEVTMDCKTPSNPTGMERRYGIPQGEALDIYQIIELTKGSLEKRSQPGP
Description: Purified exonuclease activity-deficient human mitochondrial DNA polymerase POLG was obtained from the lab of Prof. William Copeland (National Institute of Environmental Health Science, Durham, NC, USA). Human mitochondrial POLRMT was purchased from Indigo Biosciences (Cat #MV100-40).
Buffer A was 20 mM sodium phosphate, 15% ACN, pH 11; and buffer B was 20 mM sodium phosphate, 15% ACN, 1 M NaBr, pH 11. […] Briefly, a 5′-fluorescently labeled primer and template were incubated […], and the primer extension reaction was monitored via fluorescence detection ion-exchange high-performance liquid chromatography.

Row | Deaminated metabolite (adenine to inosine conversion) (adenosine deaminase) | Structure (SMILES) | PolRMT Incorporation [1] | PolRMT Incorporation ([1]; listed as 2′F—N6MeA NTP) | Pol-γ Incorporation [2] | Pol-γ Incorporation ([2]; listed as 2′F—N6MeA NTP)
1 | formation of deaminated metabolite | Nc1ncnc2c1ncn2[C@@H]1O[C@H](CO)[C@H](O)C1F (stereo partly shown) [2′-fluoro-adenosine, reference compound] | – | – | – | –
2 | – | CNc1ncnc2c1ncn2[C@@H]1O[C@H](COP(=O)(O)OP(=O)(O)OP(=O)(O)O)[C@@H](O)[C@H]1F [2′Fluoro-N6Methyl-Atp triphosphate, ((2R,3R,4R,5R)-4-fluoro-3-hydroxy-5-(6-(methylamino)-9H-purin-9-yl)tetrahydrofuran-2-yl)methyl triphosphate] | Yes | good substrate | Yes | good substrate
3 | no deaminated metabolites were observed | COC1C(O)[C@@H](CO)O[C@H]1n1cnc2c(NC(C)C)ncnc21 (stereo partly drawn) [Compound 45, (2R,5R)-2-(hydroxymethyl)-5-[6-(isopropylamino)purin-9-yl]-4-methoxy-tetrahydrofuran-3-ol] | – | – | – | –
4 | – | Nc1ncnc2c1ncn2[C@@H]1O[C@H](COP(=O)(O)OP(=O)(O)OP(=O)(O)O)[C@@H](O)[C@H]1O [rATP, reference compound] | efficiently incorporated | – | – | –
